Experimental data as given in patent publication US20260007613A1, “LONG-ACTING LOW-TOXICITY NOVEL CATIONIC LIPID COMPOUNDS AND COMPOSITION THEREOF” (BEIJING YOUCAREKECHUANG PHARMACEUTICAL TECHNOLOGY CO., LTD., priority 2023, published 2026).

Columns and labels:
[1] = Particle size and polydispersity index (PDI) of lipid nanoparticles by dynamic light scattering; assay type: physicochemical; conditions: LNP formulation prepared from the cationic lipid, 25° C.
Method: The particle size and polydispersity index (PDI) were determined by dynamic light scattering using Malvern laser particle size analyzer.
10 μL of the liposome solution was weighed, diluted to 1 mL with RNase-free deionized water, and added to the sample pool. Each sample was measured in triplicate. The measurement conditions were: […] scattering angle, and 25° C.

293T cells [2] = experiment: Fluorescent detection of Fluc-mRNA (cell transfection efficiency of LNP formulations); assay type: cell-based
How it was run: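 293T cells were seeded at 10,000/well and cultured overnight, then given LNP carrying […] Fluc-mRNA (cationic:neutral:structured:polymer-conjugated lipid 49:10:39.5:1.5 molar) for 24 h. Luminescence was developed with […] and imaged on IVIS.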

293T cells [3] = experiment: Cell survival rate determination (CCK-8); assay type: cell-based; conditions: LNP formulation of Fluc-mRNA, 24 hours, CCK-8
How it was run: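 293T cells plated at 10,000/well (96-well), adhered overnight, then exposed 24 h to Fluc-mRNA LNP (cationic:neutral:structured:PEG-lipid 49:10:39.5:1.5) or Lipofectamine 3000. Viability by CCK-8, 1 h incubation, absorbance at 450 nm.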

female BALB/C mice = experiment: Live imaging in mice: protein expression of Fluc-mRNA delivered by LNP formulations; assay type: in vivo
Method: In addition, the protein expression and duration of mRNA in mice delivered by the cationic lipid delivery carriers designed were also verified.
(§1) The LNP formulation containing […] Fluc-mRNA was injected intramuscularly into female BALB/C mice aged 4 to 6 weeks old and weighed 17 to 19 g, and the mice were intraperitoneally injected with fluorescent imaging substrate at specific time points after administration (6 h, 24 h, 48 h and 7 d), where the mice were free to move for 5 minutes, and then the average radiation intensity (corresponding to fluorescence expression intensity) of the protein expression of the mRNA carried by the LNP in the mice was detected by the IVIS Spectrum small animal live imaging device.

liver = experiment: Distribution of liposomes in mice: protein expression in the liver (live imaging); assay type: in vivo; conditions: at 6 h, intramuscular injection
Method: as §1
At 24 h, the LNP formulations prepared from all compounds had been metabolized in the liver and had no protein expression.

CCCCCCCCC(CCCCCC)C(=O)OCCCCCCN(CCCCO)CCCCCCOC(=O)C(CCCCCC)CCCCCCCC (centres unmarked) [ALC-0315, reference compound]
PDI (%) [1]: 21.2%
Particle size (nm) [1]: 231 nm
Multiples (YK-305) (293T cells [2]; RLU of YK-305 / RLU of the lipid of the line): 13.48
Multiples (YK-310) (293T cells [2]; RLU of YK-310 / RLU of the lipid of the line): 12.69
Multiples (YK-312) (293T cells [2]; RLU of YK-312 / RLU of the lipid of the line): 9.91
Multiples (YK-318) (293T cells [2]; RLU of YK-318 / RLU of the lipid of the line, Tables 5, 7, 11): 5.50
Multiples (YK-319) (293T cells [2]; RLU of YK-319 / RLU of the lipid of the line, Tables 5, 7, 11): 12.03
Ratio relative to SM-102 (293T cells [2]; RLU of the lipid / RLU of SM-102, times that of SM-102): 1.27
Cell survival rate (%) (293T cells [3]): 51.03%
average radiation intensity (female BALB/C mice; 6 h after intramuscular injection): 863760
average radiation intensity (female BALB/C mice; 24 h after intramuscular injection): 190480
average radiation intensity (female BALB/C mice; 48 h after intramuscular injection): 39810
average radiation intensity (female BALB/C mice; 7 d after intramuscular injection): 7047
protein expression in the liver (liver): had protein expression in the liver
